{
  "source": "patent US12599592B2",
  "about": "“Therapeutic small molecules for treatment of pulmonary hypertension” (UNIVERSITY OF PITTSBURGH—OF THE COMMONWEALTH SYSTEM OF …, priority 2020, dated 2026)",
  "key": {"C43 genes ISCU and mTOR": {"system": "C43 genes ISCU and mTOR", "experiment": "RT-qPCR of Cluster 43 genes in PASMCs", "format": "cell-based, human", "settings": "BRD2889 5 uM", "description": "Cell culture: Primary human pulmonary artery endothelial cells (PAECs) and human pulmonary artery smooth muscle cells (PASMCs) were purchased from Lonza (302-05A, CC-2581). Of note, the same two male donors were the source of all PAECs in the experiments shown. Two additional male donors were the source for all PASMCs in the experiments shown. Cells from these and any donors were characterized by flow cytometry for consistent expression of cell surface markers and by RNA (RT-qPCR) analysis of endothelial and smooth muscle gene expression. PAECs were cultured in EGM-2 media (CC-3121) along with supplements (CC-4133), and PASMCs were cultured in SmGM-2 culture media (Lonza, CC-3182) at 5% CO2 in a humidified incubator.\nRT-qPCR analysis: Cells were lysis in 1 ml of QiaZol reagent (Qiagen). Total RNA content was extracted using the RNeasy kit (Qiagen), according to the manufacturer's instructions. Total RNA concentration was determined using a BioTek Synergy multimode plate reader. Messenger RNAs were reverse transcribed to generate cDNA using the Multiscript RT kit (Thermo Fisher Scientific). cDNA for specific gene targets was amplified and quantified via fluorescently-labeled Taqman primer sets and Taqman fast advanced master mix (Thermo Fisher Scientific) using an Applied Biosystems QuantStudio 6 Flex Real-Time PCR System."}, "[1]": {"system": "monocrotaline-exposed pulmonary arterial hypertension rats", "experiment": "Monocrotaline (MCT) pulmonary arterial hypertension rat model", "settings": "BRD2889 5 mg/kg i.p. every 5 days, Days 12-26 post-MCT", "experimental": "Following euthanasia, right ventricle/[left ventricle+septum]\nMeasurement of GST activity: The GST activity from lung tissue and PAECs was assayed using GST assay kit (Cayman, MI, USA) per the manufacturer's instructions."}, "mitochondrial Complex I": {"system": "mitochondrial Complex I", "experiment": "Mitochondrial Complex I activity in PASMCs", "format": "cell-based, human", "settings": "IL-6/sIL-6R + hypoxia", "experimental": "(§1) In IL-6/sIL-6R+hypoxia experiments, a human recombinant IL-6/IL-6R alpha protein chimera (25 ng/ml, Millipore) was administered at 70-80% confluency for 48 h in complete media along with vehicle control (DMSO, Sigma-41639). BRD2889 (1 uM) vs. vehicle control were added, as indicated, and placed into a hypoxia chamber for 24 h. The hypoxia chamber (modular incubator chamber) was obtained from Billups-Rothenberg Inc. (Del Mar, Calif) and placed in regulated CO2 incubator at 37° C.\nMitochondria isolation: Mitochondrial fraction from cultured PAECs with drug and siGSTP1 using the Mammalian Mitochondria Isolation Kit for Tissue & Cultured Cells (Biovision, Inc.) according to the manufacturer's instructions.\nMeasurement of mitochondrial complex activities: Complex I activity of isolated mitochondria were measured using Complex I Enzyme Activity Microplate assay kit (Abcam, ab109721) according to the manufacturer's protocol. These enzymes were captured within the wells of the microplate coated by the corresponding complex enzyme antibody, and activities were detected colorimetrically."}, "PAECs": {"system": "PAECs", "experiment": "Global transcriptome microarray in PAECs", "format": "cell-based, human", "settings": "transcriptional array, hypoxia +/- BRD2889", "description": "The gene expression was normalized with Robust Multiarray Analysis (RMA). For BRD2889, the same approach was employed using Affymetrix Clariom S array on RNA isolated from PAECs treated with BRD2889 or vehicle and subjected to either hypoxia or normoxia. Differentially expressed genes were defined as any gene for which the FDR adjusted p-value was below 0.05 (n=3/grp). Reversed genes were further defined as those genes that were differentially expressed in both (hypoxia versus normoxia) and in (hypoxia+BRD2889 versus hypoxia)+vehicle as well as were regulated in opposite directions. Similarly, for I-BET that were differentially expressed in IL-1β+VC versus control and IL-1β+I-BET versus IL-1β+VC and were regulated in opposite directions. The data for both I-BET and BRD2889 have been submitted to the NCBI Gene Expression Omnibus with accession numbers GSE125508 and GSE160255, respectively."}, "PASMCs": {"system": "PASMCs", "experiment": "BrdU proliferation in PASMCs", "format": "cell-based, human", "settings": "IL-6/sIL-6R + hypoxia", "experimental": "as §1\nBrdU growth assay: Cell proliferation was assayed relative to day 0 using a BrdU Cell Proliferation Assay Kit (#6813, Cell Signaling) according to the manufacturer's protocol after incubation for 2 h with BrdU."}},
  "data": [
    {"smiles": "COc1ccc(C#CC2CCCN(C(=O)/C=C/c3cc(OC)c(OC)c(OC)c3)C2=O)cc1", "note": "(centres unmarked) [BRD2889]", "values": [
      {"measurement": "hypoxia-induced reduction in ISCU transcript", "setting": "C43 genes ISCU and mTOR", "value": "unaffected"},
      {"measurement": "mTOR transcript", "setting": "C43 genes ISCU and mTOR; hypoxia", "value": "no change"},
      {"measurement": "Fulton index (RV/LV+S)", "setting": "[1]", "value": "reduced"},
      {"measurement": "RVSP", "setting": "[1]", "value": "reduced"},
      {"measurement": "arteriolar muscularization", "setting": "[1]", "value": "reduced"},
      {"measurement": "cleaved caspase-3 (CC-3)", "setting": "[1]", "value": "decreased"},
      {"measurement": "endothelial ISCU", "setting": "[1]", "value": "increased"},
      {"measurement": "lung GST activity", "setting": "[1]", "value": "decreased"},
      {"measurement": "mitochondrial Complex I activity", "setting": "mitochondrial Complex I", "value": "did not affect"},
      {"measurement": "number of genes altered by hypoxia but reversed by drug", "setting": "PAECs", "value": 3830, "unit": "genes"},
      {"measurement": "proliferation", "setting": "PASMCs", "value": "did not affect"}
    ]}
  ]
}
